This note sets out measurements from US20250230193A1, “CYCLIC COMPOUND HAVING SELECTIVE KRAS INHIBITORY EFFECT ON HRAS AND NRAS” (CHUGAI SEIYAKU KABUSHIKI KAISHA, priority 2022, published 2025).

Where a SMILES comes first, the peptide text is derived from it. Bridges are numbered along the chain shown (N, C = ends). [ ]: non-standard residue; d: D form. The star is where a group is joined. hPhe(3-Cl-4-CF3) = N[C@@H](CCc1ccc(C(F)(F)F)c(Cl)c1)C(=O)O; NEtPhe(4-F) = CCN[C@@H](Cc1ccc(F)cc1)C(=O)O; NMeGly(cPent) = CN[C@H](C(=O)O)C1CCCC1; NMeD = CN[C@@H](CC(=O)O)C(=O)O; NMeL = CN[C@@H](CC(C)C)C(=O)O; Morpholide = C1CN(*)CCO1; Ac5c = NC1(C(=O)O)CCCC1; Sar = CNCC(=O)O

Test [1] concerns the target GDP-bound HRAS wild-type protein (Homo sapiens, UniProt P01112). Description: Binding to HRAS by surface plasmon resonance (SPR), Single Cycle Kinetics.
Test [2] has as its target GDP-bound NRAS wild-type protein (Homo sapiens, UniProt P01111). Description: Binding to NRAS by surface plasmon resonance (SPR), Single Cycle Kinetics.
Setting [3] is: KD ratio, GDP-bound HRAS wild-type vs GDP-bound KRAS wild-type, SPR.
The mark [4] stands for this setting: KD ratio, GDP-bound NRAS wild-type vs GDP-bound KRAS wild-type, SPR.
Where [5] appears, read: KD ratio HRAS/KRAS, class symbols.
Setting [6] is: KD ratio NRAS/KRAS, class symbols.

GDP-bound NRAS wild-type protein, sequence (P01111 whole entry): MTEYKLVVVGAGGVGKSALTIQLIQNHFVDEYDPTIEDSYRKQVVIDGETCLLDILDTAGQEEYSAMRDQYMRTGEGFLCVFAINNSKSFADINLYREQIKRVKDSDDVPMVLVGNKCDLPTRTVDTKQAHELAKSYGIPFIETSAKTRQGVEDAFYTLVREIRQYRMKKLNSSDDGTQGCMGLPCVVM
GDP-bound HRAS wild-type protein, sequence (P01112 whole entry): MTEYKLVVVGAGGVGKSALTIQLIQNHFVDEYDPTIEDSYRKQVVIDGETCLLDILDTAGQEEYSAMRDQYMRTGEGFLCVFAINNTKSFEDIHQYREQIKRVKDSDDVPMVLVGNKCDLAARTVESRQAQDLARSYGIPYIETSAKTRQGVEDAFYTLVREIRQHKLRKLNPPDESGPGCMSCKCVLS

On to `CCO[C@@H]1C[C@H]2C(=O)NC3(CC(C)(C)C3)C(=O)N(C)[C@@H](C3CCCC3)C(=O)N(C)[C@H](C(=O)N(C)C)CC(=O)N(C)[C@@H](CC(F)(F)F)C(=O)N[C@@H]([C@@H](C)CC)C(=O)N(C)CC(=O)N(C)[C@H]3C/C=C\CCN(C3=O)[C@@H](Cc3ccc(C(F)(F)F)cc3)C(=O)N(C)CC(=O)N[C@@H](CCc3ccc(C(F)(F)F)c(OC)c3)C(=O)N2C1` [PP1675], for which the “HRAS/KRAS (ratio of KD value for HRAS to KD value for KRAS)” value in test [1] (setting [3]) was “B (a compound having 3 or more and less than 10 is denoted as B)”. Also, the “NRAS/KRAS (ratio of KD value for NRAS to KD value for KRAS)” value in test [2] (setting [4]) is “A (a compound having 10 or more and less than 20 is denoted as A)”.

`CCO[C@@H]1C[C@H]2C(=O)NC3(CCC3)C(=O)N(C)[C@@H](C3CCCC3)C(=O)N(C)[C@H](C(=O)N(C)C)CC(=O)N(C)[C@@H](CC3CCC3)C(=O)N[C@@H]([C@@H](C)CC)C(=O)N(C)CC(=O)N(C)[C@H]3CCCCN(C3=O)[C@@H](Cc3ccc(C(F)(F)F)cc3)C(=O)N(C)CC(=O)N[C@@H](CCc3cc(F)c(C(F)(F)F)c(F)c3)C(=O)N2C1` [PP0698]: in test [1] (KD ratio HRAS/KRAS, SPR), the “HRAS/KRAS (ratio of KD value with respect to GDP-bound HRAS wild-type protein to KD value with respect to KRAS)” value is “C (A compound having a KD ratio of 0.1 or more and less than 3 is denoted as C)”. For the same compound, the “NRAS/KRAS (ratio of KD value with respect to GDP-bound NRAS wild-type protein to KD value with respect to KRAS)” value in test [2] (KD ratio NRAS/KRAS, SPR) was “C (A compound having a KD ratio of 0.1 or more and less than 3 is denoted as C)”.

In the case of `CCC[C@H]1C(=O)N[C@H]([C@@H](C)CC)C(=O)N2C[C@@H](OC)C[C@H]2C(=O)N(C)[C@H]2C/C=C\CCN(C2=O)[C@@H](Cc2ccc(C)cc2)C(=O)N(C)CC(=O)N[C@@H](CCc2ccc(C(F)(F)F)c(Cl)c2)C(=O)N2C[C@H](OCC)C[C@H]2C(=O)NC2(CCC2)C(=O)N(C)[C@@H](C2CCCC2)C(=O)N(C)[C@H](C(=O)N(C)C)CC(=O)N1C` (stereo in doubt) [PP2552], the “HRAS/KRAS (ratio of KD value with respect to GDP-bound HRAS wild-type protein to KD value with respect to KRAS)” value in test [1] (setting [5]) is “B (a compound having 3 or more and less than 10 is denoted as B)”. For the same compound, the “NRAS/KRAS (ratio of KD value with respect to GDP-bound NRAS wild-type protein to KD value with respect to KRAS)” value in test [2] (setting [6]) is “A (a compound having 10 or more and less than 20 is denoted as A)”.

In the case of `CCC(CC)[C@H]1C(=O)N(C)[C@H](C(=O)N(C)C)CC(=O)N(C)[C@@H](COC)C(=O)N[C@@H]([C@@H](C)CC)C(=O)N2CCC[C@H]2C(=O)N(C)[C@H]2C/C=C\CCN(C2=O)[C@@H](Cc2ccc(C(F)(F)F)cc2)C(=O)N(C)CC(=O)N[C@@H](CCc2ccc(Cl)c(Cl)c2)C(=O)N2C[C@H](OC(C)C)C[C@H]2C(=O)NC2(CC(C)(C)C2)C(=O)N1C` [PP2639], in test [1] (setting [5]), the “HRAS/KRAS (ratio of KD value with respect to GDP-bound HRAS wild-type protein to KD value with respect to KRAS)” value is “A (a compound having 10 or more and less than 20 is denoted as A)”. The “NRAS/KRAS (ratio of KD value with respect to GDP-bound NRAS wild-type protein to KD value with respect to KRAS)” value in test [2] (setting [6]) is “AA (a compound having 20 or more is denoted as AA)”.

For the compound `CCO[C@@H]1C[C@H]2C(=O)NC3(CCC3)C(=O)N(C)[C@@H](C3CCCC3)C(=O)N(C)[C@H](C(=O)N(C)C)CC(=O)N(C)[C@@H](COC)C(=O)N[C@@H]([C@@H](C)CC)C(=O)N(C)CC(=O)N(C)[C@H]3C/C=C\CCN(C3=O)[C@@H](Cc3ccc(C(F)(F)F)cc3)C(=O)N(C)CC(=O)N[C@@H](CCc3cc(F)c(C(F)(F)F)c(F)c3)C(=O)N2C1` [PP1113], the “HRAS/KRAS (ratio of KD value with respect to HRAS to KD value with respect to KRAS)” value in test [1] (setting [3]) is “A (a compound having 10 or more and less than 20 is denoted as A)”. The “NRAS/KRAS (ratio of KD value with respect to NRAS to KD value with respect to KRAS)” value in test [2] (setting [4]) was “A (a compound having 10 or more and less than 20 is denoted as A)”.

Consider `CC[C@H](C)[C@@H]1NC(=O)[C@H](CC(C)C)N(C)C(=O)C[C@@H](C(=O)N2CCOCC2)N(C)C(=O)[C@H](C2CCCC2)N(C)C(=O)C2(CCCC2)NC(=O)[C@@H]2CCCN2C(=O)[C@H](CCc2ccc(C(F)(F)F)c(Cl)c2)NC(=O)CN(C)C(=O)[C@H](Cc2ccc(F)cc2)N(CC)C(=O)CN(C)C(=O)CN(C)C1=O` [PP0213] ([NMeL]I[Sar][Sar][NEtPhe(4-F)][Sar][hPhe(3-Cl-4-CF3)]P[Ac5c][NMeGly(cPent)][NMeD]-Morpholide; lactam N-11), for which the “HRAS/KRAS (ratio of KD for GDP-bound HRAS wild-type to KD for KRAS)” value in test [1] (KD ratio HRAS/KRAS, SPR) is “C (A compound having a KD ratio of 0.1 or more and less than 3 is denoted as C)”. In addition, the “NRAS/KRAS (ratio of KD for GDP-bound NRAS wild-type to KD for KRAS)” value in test [2] (KD ratio NRAS/KRAS, SPR) was “C (A compound having a KD ratio of 0.1 or more and less than 3 is denoted as C)”.

With `CCOC[C@H]1C(=O)N[C@@H]([C@@H](C)CC)C(=O)N(C)CC(=O)N(C)[C@H]2C/C=C\CCN(C2=O)[C@@H](Cc2ccc(C(F)(F)F)cc2)C(=O)N(C)CC(=O)N[C@@H](CCc2ccc(Cl)c(Cl)c2)C(=O)N2C[C@H](OCC)C[C@H]2C(=O)NC2(CC(C)(C)C2)C(=O)N(C)[C@@H](CC(C)(C)C)C(=O)N(C)[C@H](C(=O)N(C)C)CC(=O)N1C` [PP2740], in test [1] (setting [5]), the “HRAS/KRAS (ratio of KD value with respect to GDP-bound HRAS wild-type protein to KD value with respect to KRAS)” value was “A (a compound having 10 or more and less than 20 is denoted as A)”. Besides, the “NRAS/KRAS (ratio of KD value with respect to GDP-bound NRAS wild-type protein to KD value with respect to KRAS)” value in test [2] (setting [6]) is “AA (a compound having 20 or more is denoted as AA)”.
